Patent publication US11332438B2, “Creatine prodrugs, compositions and methods of use thereof” (Ultragenyx Pharmaceutical Inc., priority 2017, dated 2022)

Tests used:
[1] = Chemical stability in simulated gastric fluid (SGF) without pepsin; assay type: physicochemical; settings: 50 μM prodrug
Summary of the method: (§1)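 Incubations used 50 μM compound at 37 °C in phosphate buffered saline, fasted simulated intestinal fluid without pancreatin, or fasted simulated gastric fluid without pepsin.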

[2] = Liver microsome stability, mouse; assay type: in vitro ADME; settings: liver microsomes, pH 7.4, Table 2A, read-out: Microsome Stability Mouse t1/2
Summary of the method: (§2)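 Test compound incubated with mouse or human liver microsomes and NADPH in 0.1 M potassium phosphate, 1.0 mM EDTA, pH 7.4, with a 60-min no-NADPH control. Samples quenched with ACN containing internal standard at 0, 5, 10, 20, 30 and 60 min, then analysed by LC/MS.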

[3] = Liver microsome stability, human; assay type: in vitro ADME; settings: liver microsomes, pH 7.4, Table 2A, read-out: Microsome Stability Human t1/2
Summary of the method: as §2

[4] = Chemical stability in phosphate buffered saline (PBS); assay type: physicochemical; settings: 50 μM prodrug
Summary of the method: as §1

[5] = Plasma stability, mouse plasma; assay type: in vitro ADME; settings: Table 2A, 37 °C, read-out: Plasma Stability Mouse t1/2
Summary of the method: (§3)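 Test article, 1 µM final (from 10% DMSO/water), incubated at 37 °C in plasma adjusted to pH 7.4 if needed; samples at 0, 2, 5, 15 and 30 min quenched with ice-cold 80% acetonitrile. Remaining compound by LC-MS/MS; half-life in minutes calculated.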

[6] = Plasma stability, human plasma; assay type: in vitro ADME; settings: Table 2A, 37 °C, read-out: Plasma Stability Human t1/2
Summary of the method: as §3

Chemical Stability SGF, no enzyme % T0 at 2 hours at 37 °C. ([1]; Table 2A) [%]	half-life at 10 μM [2] [min]	half-life at 10 μM [3] [min]	Chemical Stability PBS % T0 at 2 hours at 37 °C. ([4]; Table 2A) [%]	half-life [5] [min]	half-life [6] [min]	Chemical Stability SGF, no enzyme % T0 at 2 hours at 37 °C. ([1]; Table 2B) [%]	Chemical Stability PBS % T0 at 2 hours at 37 °C. ([4]; Table 2B) [%]	Compound
76	< 5	< 5	42	< 5	< 5			Cl.[2H]C([2H])([2H])N(CC(=O)OCCCCCCC)C(=N)NC(=O)CCCCCCCCCCCC [Compound 11]
117	< 5	< 5	0	< 5	< 5	95	0	Cl.[2H]C([2H])([2H])N(CC(=O)OCC)C(=N)NC(=O)CCCCCCCCCC [Compound 8]
81	7	6	61	< 5	< 5			Cl.[H]/N=C(/NC(=O)CCCCCCC/C=C\CCCCCCCC)N(CC(=O)OCCCCCCC)C([2H])([2H])[2H] [Compound 2, (Z)-heptyl 2-(1-trideuteriomethyl-3-oleoylguanidino)acetate Hydrochloride]
